Measurements taken from paper PMC12206033, “Selective inhibition of TRPV3 channel by natural rosmarinic acid and its analogs for alleviation of skin lesions through downregulation of NF-κB pathway” (The Journal of Biological Chemistry, 2025).

Tests used:
hTRPV1 = biological target: T1, hTRPV1 (Homo sapiens, UniProt Q8NER1); test: whole-cell patch-clamp of hTRPV1 currents activated by capsaicin; assay type: cell-based; settings: ROSA 50 μM; agonist capsaicin 1 μM; read-out: inhibition of TRPV1 currents
T1 construct: expressed in transfected cells; host or cells: HEK293T
Description: (§1) HEK293T cell line was obtained from the Cell Resource Center, Peking Union Medical College. HEK293T cells were maintained in Dulbecco’s modified Eagle’s medium (DMEM, Gibco) supplemented with 10% fetal bovine serum at 37 °C with 5% CO2. […] The next day, determine the plasmid transfection status by observing green fluorescence based on expression of enhanced GFP as an indicator. […] When conducting experiments on HEK293T cells transfected with G573S point mutant TRPV3 plasmid, we replaced culture medium with or without compounds after 4 h of transfection and then observed green fluorescence of HEK293T cell after 10 h. As for the relative fluorescence intensity, we convert the image to 8 bit grayscale using ImageJ (Https://imagej.net/software/fiji/downloads) and set an appropriate threshold value to reduce background noise and enhance the image contrast.
(§2) All patch-clamp recordings were conducted 16 to 24 h after transfection using an EPC10 amplifier powered by PatchMaster software (HEKA) (https://www.heka.com/downloads/downloads_main.html#down_patchmaster) at room temperature. […] Currents were recorded at a potential ramp from −100 mV to +100 mV for 1000 ms with 1000-ms intervals (for whole-cell recordings) or a persistent potential of −60 mV (inside-out patch recordings). […]

mTRPV2 = biological target: T2, mTRPV2 (Mus musculus, UniProt Q9WTR1); test: whole-cell patch-clamp of mTRPV2 currents activated by 2-APB; assay type: cell-based; settings: ROSA 50 μM; agonist 2-APB 2 mM; read-out: inhibition of TRPV2 currents
T2 construct: expressed in transfected cells; host or cells: HEK293T
T2 sequence (Q9WTR1 1-756): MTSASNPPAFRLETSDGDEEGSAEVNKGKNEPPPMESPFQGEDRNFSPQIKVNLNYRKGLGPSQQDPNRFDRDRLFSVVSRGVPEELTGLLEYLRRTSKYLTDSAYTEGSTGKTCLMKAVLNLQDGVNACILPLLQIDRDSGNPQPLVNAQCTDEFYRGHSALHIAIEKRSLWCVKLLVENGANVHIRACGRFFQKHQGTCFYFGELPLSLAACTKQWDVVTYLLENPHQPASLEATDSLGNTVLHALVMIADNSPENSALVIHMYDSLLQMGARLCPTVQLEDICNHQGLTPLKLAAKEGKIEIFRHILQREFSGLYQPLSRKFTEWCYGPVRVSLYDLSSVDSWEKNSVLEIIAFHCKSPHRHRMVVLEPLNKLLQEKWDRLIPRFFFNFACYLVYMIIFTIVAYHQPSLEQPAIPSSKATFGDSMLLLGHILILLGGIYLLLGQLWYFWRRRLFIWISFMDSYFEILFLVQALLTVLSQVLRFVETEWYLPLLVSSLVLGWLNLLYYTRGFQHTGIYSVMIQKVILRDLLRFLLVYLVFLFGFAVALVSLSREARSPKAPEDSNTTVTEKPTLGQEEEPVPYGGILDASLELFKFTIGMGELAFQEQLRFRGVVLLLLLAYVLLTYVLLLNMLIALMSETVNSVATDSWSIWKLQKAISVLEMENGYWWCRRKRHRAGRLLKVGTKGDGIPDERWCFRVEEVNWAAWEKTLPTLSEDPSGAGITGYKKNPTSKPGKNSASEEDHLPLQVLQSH
Description: as §1, §2

hTRPV4 = biological target: T3, hTRPV4 (Homo sapiens, UniProt Q9HBA0); test: whole-cell patch-clamp of hTRPV4 currents activated by GSK101; assay type: cell-based; settings: ROSA 50 μM; agonist GSK101 100 nM; read-out: inhibition of TRPV4 currents
T3 construct: expressed in transfected cells; host or cells: HEK293T
Description: as §1, §2

hTRPM8 = biological target: T4, hTRPM8 (Homo sapiens, UniProt Q7Z2W7); test: whole-cell patch-clamp of hTRPM8 currents activated by menthol; assay type: cell-based; settings: ROSA 50 μM; agonist menthol 30 μM (legend: 500 μM)
T4 construct: expressed in transfected cells; host or cells: HEK293T
Description: as §1, §2

[1] = tested on: Car-induced ear swelling and dorsal skin inflammation in mice; test: mouse model of ear swelling and dorsal skin inflammation induced by skin sensitizer Car (3%); assay type: in vivo
Excerpt: Adult C57BL/6J mice (aged 6–8 weeks, weighing 20 ± 2 g) were purchased from the Beijing Vital River Laboratory Animal Technology Co. Ltd. TRPV3-KO mice were purchased from Cyagen Biosciences Inc. All mice were housed in plastic cages with natural poplar wood bedding materials, accommodating three to five mice per cage. The housing environment was maintained at a controlled room temperature of (23 ± 2) °C and humidity of (50 ± 5) %, with 12-h light/dark cycle (lights on at 7:00 AM and off at 7:00 PM). Mice had free access to food and water. All animal test protocols were approved by the Institutional Animal Care and Use Committee of Qingdao University Health Science Center and were conducted in accordance with institutional and national guidelines for the use and care of animals in experiments. All mice were anesthetized with isoflurane (1%–1.5%) using an isoflurane gas anesthesia device and were euthanized under anesthesia.
Skin sensitizer Car was dissolved in saline solution containing 30% ethanol. The dorsal skin or ear of mice was swabbed with 3% Car for four consecutive days. To investigate the effects of ROSA, it was diluted to concentration of 0.1/1/10 mM with saline and topically applied on the ear and dorsal skin once a day for 4 days. The control group only received swabs with the solvent.

[2] = tested on: HEK293T cells expressing hTRPV3; test: Hoechst 33342/propidium iodide double staining cell death assay; assay type: cell-based; settings: inhibitor 20 μM added 1 h before Car 300 μM
Description: For cell death assay, HEK293T cells transfected with hTRPV3 were seeded in 6-well plates and randomly divided into different groups. TRPV3 and NF-κB inhibitors were added 1 h before the addition of Car. After administration of Car for 1 h, cell death was detected using Hoechst 33342/propidium iodide Double Stain Kit (Solarbio). After staining, cells were resuspended with PBS buffer. Five random view images in each group were taken under a microscope (Eclipse Ti, Nikon) and counted using ImageJ software (National Institutes of Health).

T4 sequence (Q7Z2W7 whole entry): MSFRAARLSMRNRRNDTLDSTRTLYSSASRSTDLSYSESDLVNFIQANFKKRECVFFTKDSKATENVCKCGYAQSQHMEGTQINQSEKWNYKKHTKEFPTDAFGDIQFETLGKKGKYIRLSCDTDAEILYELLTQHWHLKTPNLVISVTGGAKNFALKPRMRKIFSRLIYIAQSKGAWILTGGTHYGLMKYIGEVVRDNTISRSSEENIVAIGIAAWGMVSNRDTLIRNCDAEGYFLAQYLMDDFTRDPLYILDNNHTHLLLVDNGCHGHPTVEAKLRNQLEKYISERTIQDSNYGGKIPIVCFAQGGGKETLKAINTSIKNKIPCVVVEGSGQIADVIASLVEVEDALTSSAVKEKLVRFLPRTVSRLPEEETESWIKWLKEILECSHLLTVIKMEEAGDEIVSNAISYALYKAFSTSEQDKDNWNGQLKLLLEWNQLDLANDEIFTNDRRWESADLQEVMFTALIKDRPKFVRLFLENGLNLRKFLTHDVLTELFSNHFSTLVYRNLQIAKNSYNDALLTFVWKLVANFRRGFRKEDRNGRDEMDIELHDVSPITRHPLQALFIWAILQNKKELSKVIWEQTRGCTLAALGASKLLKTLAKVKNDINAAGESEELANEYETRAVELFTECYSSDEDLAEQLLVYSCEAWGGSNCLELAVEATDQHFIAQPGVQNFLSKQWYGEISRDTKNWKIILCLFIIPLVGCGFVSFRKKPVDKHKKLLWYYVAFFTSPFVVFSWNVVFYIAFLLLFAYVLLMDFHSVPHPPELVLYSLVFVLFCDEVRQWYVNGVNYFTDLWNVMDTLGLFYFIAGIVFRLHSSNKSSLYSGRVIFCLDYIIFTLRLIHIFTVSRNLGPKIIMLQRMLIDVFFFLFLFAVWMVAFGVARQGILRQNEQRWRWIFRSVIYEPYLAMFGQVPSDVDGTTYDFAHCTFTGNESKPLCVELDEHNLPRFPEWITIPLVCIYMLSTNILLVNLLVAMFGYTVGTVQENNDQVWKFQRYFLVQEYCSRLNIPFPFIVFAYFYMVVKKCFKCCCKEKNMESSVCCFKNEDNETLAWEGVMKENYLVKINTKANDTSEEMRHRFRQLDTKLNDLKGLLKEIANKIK
T1 sequence (Q8NER1 whole entry): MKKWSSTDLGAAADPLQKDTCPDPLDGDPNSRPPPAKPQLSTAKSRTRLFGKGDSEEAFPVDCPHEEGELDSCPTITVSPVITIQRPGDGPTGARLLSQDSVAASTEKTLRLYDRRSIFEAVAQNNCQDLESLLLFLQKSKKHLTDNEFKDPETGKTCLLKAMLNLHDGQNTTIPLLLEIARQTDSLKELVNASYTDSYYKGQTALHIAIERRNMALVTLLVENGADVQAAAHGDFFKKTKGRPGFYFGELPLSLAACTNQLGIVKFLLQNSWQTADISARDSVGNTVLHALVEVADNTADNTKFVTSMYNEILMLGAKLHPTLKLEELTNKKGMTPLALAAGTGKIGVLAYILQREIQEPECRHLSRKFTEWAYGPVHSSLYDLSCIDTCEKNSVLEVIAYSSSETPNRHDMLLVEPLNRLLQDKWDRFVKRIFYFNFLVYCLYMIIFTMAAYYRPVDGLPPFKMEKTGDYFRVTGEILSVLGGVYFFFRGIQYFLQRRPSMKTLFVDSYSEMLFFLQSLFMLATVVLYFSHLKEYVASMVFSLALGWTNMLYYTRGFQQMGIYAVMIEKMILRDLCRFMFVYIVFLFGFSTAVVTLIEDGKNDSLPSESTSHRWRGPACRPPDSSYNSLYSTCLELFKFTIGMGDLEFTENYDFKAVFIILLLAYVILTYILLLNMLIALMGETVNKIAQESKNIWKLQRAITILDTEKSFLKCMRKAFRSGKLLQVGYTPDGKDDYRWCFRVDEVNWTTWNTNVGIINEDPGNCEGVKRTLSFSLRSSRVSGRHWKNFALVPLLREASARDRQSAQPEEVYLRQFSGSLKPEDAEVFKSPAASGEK
T3 sequence (Q9HBA0 whole entry): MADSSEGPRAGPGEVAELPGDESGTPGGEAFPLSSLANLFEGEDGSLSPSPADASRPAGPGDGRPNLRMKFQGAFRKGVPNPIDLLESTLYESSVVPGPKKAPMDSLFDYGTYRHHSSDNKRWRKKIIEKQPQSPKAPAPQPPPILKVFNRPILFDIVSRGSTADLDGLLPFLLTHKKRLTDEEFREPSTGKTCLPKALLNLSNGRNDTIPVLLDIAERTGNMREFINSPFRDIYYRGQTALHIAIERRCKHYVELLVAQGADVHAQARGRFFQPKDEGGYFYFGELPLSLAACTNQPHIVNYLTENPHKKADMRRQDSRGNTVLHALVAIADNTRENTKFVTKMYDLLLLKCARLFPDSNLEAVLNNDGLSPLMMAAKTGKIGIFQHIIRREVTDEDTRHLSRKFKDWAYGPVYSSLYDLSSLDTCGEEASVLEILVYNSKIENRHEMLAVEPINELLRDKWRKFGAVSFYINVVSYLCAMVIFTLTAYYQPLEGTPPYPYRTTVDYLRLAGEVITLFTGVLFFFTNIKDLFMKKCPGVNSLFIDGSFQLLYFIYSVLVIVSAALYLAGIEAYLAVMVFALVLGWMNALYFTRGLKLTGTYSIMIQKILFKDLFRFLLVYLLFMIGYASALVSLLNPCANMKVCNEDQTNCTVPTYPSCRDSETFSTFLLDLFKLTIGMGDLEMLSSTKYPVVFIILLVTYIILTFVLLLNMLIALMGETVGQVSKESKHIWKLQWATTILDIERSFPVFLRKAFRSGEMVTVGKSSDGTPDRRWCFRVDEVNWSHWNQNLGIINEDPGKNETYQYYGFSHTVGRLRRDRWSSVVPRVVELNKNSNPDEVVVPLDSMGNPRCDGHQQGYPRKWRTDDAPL

O=C(/C=C/c1ccc(O)c(O)c1)O[C@H](Cc1ccc(O)c(O)c1)C(=O)O [ROSA, rosmarinic acid]
inhibition at 50 µM (hTRPV1): 1.8 ± 11.7% | inhibition at 50 µM (mTRPV2): 21 ± 6.1% | inhibition at 50 µM (hTRPV4): 2 ± 7.3% | inhibition of TRPM8 currents (hTRPM8): 0.7 ± 6.7% | ear thickness in Trpv3 KO mice ([1]; topical ROSA 10 mM, Trpv3 KO mice, Car): no further reduction of ear thickness | ear and dorsal skin inflammation ([1]; topical ROSA 0.1, 1.0 and 10 mM once a day for 4 days, 3% Car, compared to Car alone): significantly alleviated the ear and dorsal skin inflammation | ear swelling scores ([1]; topical ROSA 0.1, 1.0 and 10 mM, 3% Car, compared to Car alone): reduced the ear swelling scores in both dose- and time-dependent manner | ear thickness ([1]; topical ROSA, 3% Car, compared to Car alone): reduction in ear thickness was also evident, starting on the third day | dermatitis scores, dorsal skin ([1]; topical ROSA, 3% Car, fourth day): significant difference in dermatitis scores between the ROSA group and the Car group | cell death ratio [2]: 17%
